According to patent publication US20080292760A1, “Semi-Solid Food Products and Methods For Their Production, Based on Inhibiting Amylase Starch Breakdown” (WAGENINGEN CENTRE FOR FOOD SCIENCES, priority 2004, published 2008):

Target: T1, salivary amylase (Homo sapiens, UniProt P0DUB6)
T1 construct: from tissue; host or cells: saliva in the mouths of the human panelists (in vivo)
T1 sequence (P0DUB6 16-511): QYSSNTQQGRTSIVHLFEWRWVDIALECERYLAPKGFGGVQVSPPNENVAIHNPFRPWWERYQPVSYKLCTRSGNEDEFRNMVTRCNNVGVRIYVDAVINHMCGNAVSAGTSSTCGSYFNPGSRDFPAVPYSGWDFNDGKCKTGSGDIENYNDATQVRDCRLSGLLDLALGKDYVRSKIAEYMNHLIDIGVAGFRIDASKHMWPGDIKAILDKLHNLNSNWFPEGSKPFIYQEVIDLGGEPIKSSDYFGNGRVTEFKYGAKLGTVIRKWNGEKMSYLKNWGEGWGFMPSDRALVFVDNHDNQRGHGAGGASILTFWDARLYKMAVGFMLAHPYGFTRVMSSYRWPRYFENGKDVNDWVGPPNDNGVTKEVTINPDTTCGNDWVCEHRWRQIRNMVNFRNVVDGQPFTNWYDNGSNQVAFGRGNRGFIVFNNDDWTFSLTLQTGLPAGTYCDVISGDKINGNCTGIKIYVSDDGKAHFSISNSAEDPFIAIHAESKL
Assay: acarbose study: sensory rating of vanilla custard desserts with added acarbose
Type: in vivo
Conditions: Creamex custard
Method: The role of salivary amylase in modifying texture sensations was evaluated in the following examples, in which the level of amylase activity was varied within subjects, rather than between subjects. Alpha-amylase was added in varying concentrations to starch and CMC (non-starch)-based vanilla custard desserts. Additionally, amylase activity was inhibited to various degrees by adding the pharmaceutical amylase inhibitor Acarbose (CAS nr. 56180-94-0) in various concentrations to the same test foods.
Eighteen subjects, 11 females and 7 males aged between 18 and 34 yrs, participated the ‘amylase study’ and 7 different subjects, all females aged between 39 and 56 yrs, participated in the ‘acarbose study’. The subjects participating in the latter study had been informed about acarbose and its possibly side effects if swallowed. To avoid these side effects, subjects expectorated rather than swallowed the acarbose samples. All subjects signed consent forms expressing their willingness to participate in the studies, and all had previously been screened for olfactory and taste disorders and had received extensive training in the description of sensory mouthfeel and afterfeel attributes for semi-solid foods. Testing took place at the sensory facilities of TNO-Nutrition and Food Research in Zeist, The Netherlands. […]

## C[C@H]1O[C@H](O[C@H]2[C@H](O)[C@@H](O)[C@@H](O[C@H]3[C@H](O)[C@@H](O)C(O)O[C@@H]3CO)O[C@@H]2CO)[C@H](O)[C@@H](O)[C@@H]1N[C@H]1C=C(CO)[C@@H](O)[C@H](O)[C@H]1O (stereo partly shown) [Acarbose]
  increase of creamy mouthfeel: up to 59%
